Consider 1 compound from ChEMBL document CHEMBL2429761, “Discovery of ML314, a Brain Penetrant Non-Peptidic β-Arrestin Biased Agonist of the Neurotensin NTR1 Receptor” (ACS Med Chem Lett, 2013).

In brackets after ≈: the same amount, converted by molar mass.

Data set [1] in a line: Kinetic solubility of the compound in PBS buffer at 250 uM after 18 hrs at pH 7.4. Particulars: read-out: Kinetic_solubility. Format: physicochemical.
In data set [2] the target is T1, Alpha-1B adrenergic receptor (Homo sapiens) (UniProt P35368).
T1 sequence (whole entry): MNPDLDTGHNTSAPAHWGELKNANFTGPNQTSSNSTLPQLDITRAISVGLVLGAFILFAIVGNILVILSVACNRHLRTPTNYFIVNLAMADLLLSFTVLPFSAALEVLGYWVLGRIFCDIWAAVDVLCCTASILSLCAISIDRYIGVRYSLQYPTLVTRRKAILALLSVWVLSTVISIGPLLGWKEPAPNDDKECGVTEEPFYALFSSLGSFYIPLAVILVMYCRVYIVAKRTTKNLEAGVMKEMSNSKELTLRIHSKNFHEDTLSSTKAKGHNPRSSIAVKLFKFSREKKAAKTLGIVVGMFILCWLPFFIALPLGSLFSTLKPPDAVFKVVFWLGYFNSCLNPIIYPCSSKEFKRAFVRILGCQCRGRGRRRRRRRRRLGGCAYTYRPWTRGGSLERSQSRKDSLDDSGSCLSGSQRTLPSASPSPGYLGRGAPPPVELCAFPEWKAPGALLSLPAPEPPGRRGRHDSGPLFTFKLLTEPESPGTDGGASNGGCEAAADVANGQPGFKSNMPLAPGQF
Put plainly: Binding affinity to adrenergic alpha1B receptor (unknown origin) at 10 uM relative to control.

A short description of data set [3]: Effective permeability of the compound at 50 uM after 30 mins at donor pH 6.2 and acceptor pH 7.4 by PAMPA. The class given is ADME. The conditions noted are these: pH 6.2, 0.5 h.
In data set [4] the test system is Plasma. The experiment in a line: Plasma protein binding in human at 10 uM after 4 hrs by LC-MS/MS analysis. The class given is ADME, cell-free.
For data set [5], the target named is T2, Alpha-1D adrenergic receptor (Homo sapiens) (UniProt P25100).
T2 sequence (whole entry): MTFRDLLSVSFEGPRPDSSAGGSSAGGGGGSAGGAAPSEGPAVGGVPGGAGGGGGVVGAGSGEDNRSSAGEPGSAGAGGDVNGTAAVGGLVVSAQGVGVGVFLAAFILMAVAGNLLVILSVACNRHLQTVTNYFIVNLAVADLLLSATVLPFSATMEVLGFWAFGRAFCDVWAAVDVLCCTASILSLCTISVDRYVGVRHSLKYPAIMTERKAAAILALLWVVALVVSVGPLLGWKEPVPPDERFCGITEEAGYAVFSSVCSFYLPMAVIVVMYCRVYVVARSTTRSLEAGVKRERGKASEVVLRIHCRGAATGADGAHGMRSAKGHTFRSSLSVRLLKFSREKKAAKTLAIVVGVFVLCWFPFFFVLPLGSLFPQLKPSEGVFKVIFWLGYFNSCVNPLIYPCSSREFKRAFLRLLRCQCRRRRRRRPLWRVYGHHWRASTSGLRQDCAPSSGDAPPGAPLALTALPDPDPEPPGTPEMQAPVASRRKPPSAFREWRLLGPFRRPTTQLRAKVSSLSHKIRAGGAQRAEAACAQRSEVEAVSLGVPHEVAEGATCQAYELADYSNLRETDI
Put plainly: Binding affinity to adrenergic alpha1D receptor (unknown origin) at 10 uM relative to control.

The nature of data set [6]: Drug uptake in C57BL/6J mouse brain at 10 mg/kg, ip after 1 hr by LC-MS/MS analysis. More on the design: dose 10 mg/kg, route intraperitoneal. Format: ADME, organism-based. Particulars: read-out: Drug uptake.
Data set [7] has as its target T3, Neurotensin receptor type 1 (Homo sapiens, UniProt P30989). The conditions noted are these: U2OS.
Description: Agonist activity at NTR1 (unknown origin) expressed in human U2OS cells coexpressing beta-arrestin by GFP reporter gene assay
A further data set has as its target Histamine H1 receptor (Homo sapiens, UniProt P35367). The experiment in a line: Binding affinity to histamine H1 receptor (unknown origin).
The subject of a further data set is Liver. Put plainly: Metabolic stability in mouse liver microsomes assessed as compound remaining at 1 to 10 uM after 1 hr by LC-MS/MS analysis. Format: ADME, Microsome.
Data set [8] is described as follows: Drug uptake in C57BL/6J mouse brain at 30 mg/kg, ip after 1 hr by LC-MS/MS analysis. The arrangement: dose 30 mg/kg, route intraperitoneal. Format: ADME, organism-based. The conditions noted are these: read-out: Drug uptake.
The nature of data set [9]: Effective permeability of the compound at 50 uM after 30 mins at donor pH 5 and acceptor pH 7.4 by PAMPA. The class given is ADME. Particulars: pH 5, 0.5 h.
Data set [10] is described as follows: Kinetic solubility of the compound in pION buffer at 250 uM after 18 hrs at pH 7.4. Particulars: read-out: Kinetic_solubility. The class given is physicochemical.
Data set [11] relates to Plasma. The experiment in a line: Plasma protein binding in mouse at 10 uM after 4 hrs by LC-MS/MS analysis. The class given is ADME, cell-free.
A further data set has as its target Translocator protein (Homo sapiens, UniProt P30536). Put plainly: Binding affinity to PBR receptor (unknown origin).
A short description of data set [12]: Effective permeability of the compound at 50 uM after 30 mins at donor pH 7.4 and acceptor pH 7.4 by PAMPA. Format: ADME. The conditions noted are these: pH 7.4, 0.5 h.
Data set [13] has as its target G-protein coupled receptor 35 (Homo sapiens, UniProt Q9HC97). Put plainly: Agonist activity at GPR35 (unknown origin) expressed in human U2OS cells coexpressing beta-arrestin by GFP reporter gene assay. Format: cell-based.
In data set [14] the test system is Plasma. Put plainly: Metabolic stability in mouse plasma assessed as compound remaining at 1 uM after 3 hrs by LC-MS/MS analysis. Format: ADME, cell-free.
For data set [15], the target named is T4, Alpha-2A adrenergic receptor (Homo sapiens) (UniProt P08913).
T4 sequence (whole entry): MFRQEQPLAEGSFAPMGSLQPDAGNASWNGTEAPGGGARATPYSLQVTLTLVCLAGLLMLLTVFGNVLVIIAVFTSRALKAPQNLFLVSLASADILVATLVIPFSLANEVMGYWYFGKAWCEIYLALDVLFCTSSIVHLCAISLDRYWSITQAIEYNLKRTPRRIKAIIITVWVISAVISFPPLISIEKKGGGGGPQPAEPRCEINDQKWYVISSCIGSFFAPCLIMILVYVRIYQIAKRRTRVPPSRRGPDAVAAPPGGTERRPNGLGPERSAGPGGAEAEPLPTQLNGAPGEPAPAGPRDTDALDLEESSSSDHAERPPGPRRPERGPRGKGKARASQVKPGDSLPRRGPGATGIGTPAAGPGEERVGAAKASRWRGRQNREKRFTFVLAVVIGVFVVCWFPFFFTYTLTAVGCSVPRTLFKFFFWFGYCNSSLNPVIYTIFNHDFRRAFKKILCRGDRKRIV
The experiment in a line: Binding affinity to adrenergic alpha2A receptor (unknown origin) at 10 uM relative to control.

The target of data set [16] is T3, Neurotensin receptor type 1. The experiment in a line: Agonist activity at NTR1 (unknown origin) expressed in CHO cells assessed as stimulation of calcium flux. Format: functional, cell-based.
Data set [17] deals with Plasma. Put plainly: Metabolic stability in human plasma assessed as compound remaining at 1 uM after 3 hrs by LC-MS/MS analysis. Format: ADME, cell-free.
For data set [18], the target named is 5-hydroxytryptamine receptor 7 (Homo sapiens, UniProt P34969). Put plainly: Binding affinity to 5-HT7 receptor (unknown origin).
Data set [19] has as its system Mycobacterium tuberculosis. Put plainly: Antibacterial activity against Mycobacterium tuberculosis H37Rv assessed as growth inhibition. Format: functional.
In another data set the target is Mu-type opioid receptor (Homo sapiens, UniProt P35372). Put plainly: Binding affinity to mu opioid receptor (unknown origin).
The nature of data set [20]: Hepatotoxicity in human Fa2N-4 cells after 24 hrs by luminescence assay. Format: toxicity, cell-based. The conditions noted are these: fa2n-4, 24 h, read-out: LC50 (the source's name).

T3 sequence (P30989 whole entry): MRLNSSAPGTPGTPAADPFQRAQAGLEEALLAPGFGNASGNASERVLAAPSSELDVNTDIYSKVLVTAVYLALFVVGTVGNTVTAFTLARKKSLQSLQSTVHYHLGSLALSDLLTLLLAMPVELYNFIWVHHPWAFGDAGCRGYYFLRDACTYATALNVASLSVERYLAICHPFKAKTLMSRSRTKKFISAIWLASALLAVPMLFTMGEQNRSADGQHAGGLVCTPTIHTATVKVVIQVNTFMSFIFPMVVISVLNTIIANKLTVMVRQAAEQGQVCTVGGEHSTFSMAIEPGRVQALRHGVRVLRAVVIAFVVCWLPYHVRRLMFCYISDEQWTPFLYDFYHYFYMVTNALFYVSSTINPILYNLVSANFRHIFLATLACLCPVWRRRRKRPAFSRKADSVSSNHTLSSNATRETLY
Chain of Histamine H1 receptor (P35367 whole entry): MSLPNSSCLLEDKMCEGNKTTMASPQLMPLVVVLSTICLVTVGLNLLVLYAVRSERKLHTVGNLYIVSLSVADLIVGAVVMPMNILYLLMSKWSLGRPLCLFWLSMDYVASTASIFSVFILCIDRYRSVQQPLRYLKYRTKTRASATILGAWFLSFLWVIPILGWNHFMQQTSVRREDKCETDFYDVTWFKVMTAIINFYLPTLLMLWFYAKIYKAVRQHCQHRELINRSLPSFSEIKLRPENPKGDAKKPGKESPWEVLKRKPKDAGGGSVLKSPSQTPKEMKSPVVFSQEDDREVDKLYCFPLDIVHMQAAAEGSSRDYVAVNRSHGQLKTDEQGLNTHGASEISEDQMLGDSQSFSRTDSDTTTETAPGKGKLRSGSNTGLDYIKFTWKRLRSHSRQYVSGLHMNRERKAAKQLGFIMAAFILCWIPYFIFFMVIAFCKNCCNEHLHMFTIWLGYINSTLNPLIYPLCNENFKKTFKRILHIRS
Chain of Translocator protein (P30536 whole entry): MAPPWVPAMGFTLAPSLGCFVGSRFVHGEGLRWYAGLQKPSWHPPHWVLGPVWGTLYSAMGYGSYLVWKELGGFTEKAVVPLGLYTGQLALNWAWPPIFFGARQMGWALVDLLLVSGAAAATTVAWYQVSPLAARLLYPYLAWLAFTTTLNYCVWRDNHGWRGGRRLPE
Chain of Mu-type opioid receptor (P35372 whole entry): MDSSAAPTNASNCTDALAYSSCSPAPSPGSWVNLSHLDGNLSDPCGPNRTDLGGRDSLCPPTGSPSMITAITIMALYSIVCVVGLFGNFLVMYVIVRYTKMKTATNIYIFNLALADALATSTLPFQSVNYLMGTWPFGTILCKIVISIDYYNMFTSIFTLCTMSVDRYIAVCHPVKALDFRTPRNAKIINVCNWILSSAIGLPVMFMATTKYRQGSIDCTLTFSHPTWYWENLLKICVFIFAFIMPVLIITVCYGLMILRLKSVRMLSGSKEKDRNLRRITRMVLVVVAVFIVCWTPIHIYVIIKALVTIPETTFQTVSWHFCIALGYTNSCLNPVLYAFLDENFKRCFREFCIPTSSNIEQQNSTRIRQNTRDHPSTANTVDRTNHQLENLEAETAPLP
Chain of G-protein coupled receptor 35 (Q9HC97 whole entry): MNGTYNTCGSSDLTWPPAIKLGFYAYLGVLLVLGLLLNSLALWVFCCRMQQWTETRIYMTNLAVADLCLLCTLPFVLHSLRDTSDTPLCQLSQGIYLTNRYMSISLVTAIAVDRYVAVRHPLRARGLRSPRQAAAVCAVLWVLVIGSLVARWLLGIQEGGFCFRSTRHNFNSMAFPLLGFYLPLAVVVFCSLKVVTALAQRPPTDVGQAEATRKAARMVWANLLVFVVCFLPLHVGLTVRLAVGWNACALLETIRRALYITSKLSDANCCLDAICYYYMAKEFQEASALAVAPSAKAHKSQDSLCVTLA
Chain of 5-hydroxytryptamine receptor 7 (P34969 whole entry): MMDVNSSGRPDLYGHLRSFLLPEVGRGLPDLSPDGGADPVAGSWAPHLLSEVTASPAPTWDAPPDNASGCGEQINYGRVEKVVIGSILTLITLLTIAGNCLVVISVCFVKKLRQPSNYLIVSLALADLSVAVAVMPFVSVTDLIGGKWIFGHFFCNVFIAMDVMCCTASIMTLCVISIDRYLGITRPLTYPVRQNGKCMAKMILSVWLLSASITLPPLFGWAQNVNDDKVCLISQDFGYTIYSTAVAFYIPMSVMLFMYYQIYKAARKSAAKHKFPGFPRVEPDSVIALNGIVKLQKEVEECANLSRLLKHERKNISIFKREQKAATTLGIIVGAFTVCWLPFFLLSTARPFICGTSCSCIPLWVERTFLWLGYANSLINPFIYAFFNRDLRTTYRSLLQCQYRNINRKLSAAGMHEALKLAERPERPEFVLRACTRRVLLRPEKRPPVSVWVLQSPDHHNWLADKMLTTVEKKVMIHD

For the compound `COc1cc2nc(C3CC3)nc(N3CCN(c4ccccc4OC)CC3)c2cc1OC`, the values for the solubility kinetic at 18 h, 250 µM in data set [1] and in data set [10] were 1.1 µM (≈ 0.463 µg/mL) and 1.2 µM (≈ 0.505 µg/mL), respectively. The Activity in [2], in [5] and in data set [15] was 63% throughout. Besides, the Peff in [3] is 2140 ×10⁻⁶ cm/s; in data set [9] it was 1160 ×10⁻⁶ cm/s; in data set [12] it was 2090 ×10⁻⁶ cm/s. Besides, the PPB with Plasma [4] amounted to 99.2%; in the data set with Plasma [11], 98.9%. Besides, the concentration at 1 h in data set [6] is 924 ng/mL; in [8], 1510 ng/mL. Further, the EC100 in [7] came out at 10 µM. In addition, the Ki was 1.42 µM at Histamine H1 receptor, 2.54 µM on Translocator protein, 0.93 µM in data set [18] and 1.54 µM on Mu-type opioid receptor. The Stability stood at 0.2% with Liver, 99.6% in the data set with Plasma [14] and 100% in the data set on Plasma [17]. The EC50 in [13] was > 40 µM; in data set [16] it was > 80 µM. Besides, the GI in [19] turned out to be 3.9 µM. Moreover, in data set [20], the CC50 was 29.6 µM.
